In patent US11173167B2, “Nutritional intervention for improving muscular function and strength” (Metabolic Technologies, Inc., priority 2008, dated 2021):

Key:
[1] = 12-week HMB / Vitamin D study, knee extension strength (BIODEX peak torque); format: in vivo, human; settings: older adults, 8 weeks
From the text: (§1) Prior to the start of the experimental period, we randomly assigned nutritional supplements to each subject using computer-generated random numbers in a double-blind fashion. Treatments were arranged in a 2×2 factorial design with two levels of HMB (0 & 3.0 g/d) and two levels of Vitamin D (0 & 2,000 IU/d). We assigned subjects to one of the following four treatments:
The exercise testing and training session was supervised by trained research associates. Resting heart rate and blood pressure measurements were obtained prior to strength measurements. Enrolled individuals participated in an exercise training program consisting of strength training exercises with Theraband® stretch cords (resistance training) and jumping. The equipment consisted of items that can easily be used at home. Exercise sessions were 3 times a week for 12 weeks. Each exercise session was about 45-60 minutes. […]
Body composition measurements were obtained at 0, 4, 8, and 12 weeks. […] Handgrip strength was measured using a handgrip dynamometer. Peak torque for knee extension and flexion was measured at 60, 90 and 120°/sec. Peak torque for elbow extension and flexion was measured at 60 and 120°/sec.
(§2) Least Squares Mean±SEM were calculated strength and functionality changes in each variable over the 12-week period. […] Statistical significance was determined for p<0.05 and a trend was determined for 0.05<p<0.10.

[2] = 12-week HMB / Vitamin D study, muscular performance index; format: in vivo, human; settings: eight week performance index, older adults
From the text: as §1
Functionality tests included: “Get-up-and-Go” performance (speed and gate), and “Get-up” performance. The “Get-up-and-Go” test consisted of timed measurements of the subject's starting from a seated position, standing, walking forward 3 meters, turning around, walking back to the chair, and sitting down. […] The complete descriptions and standardization of the tests are outlined in the Physical Dimensions of Aging by Waneen W. Spirduso (Human Kinetics, 1995).
A muscular performance index was calculated by summing the percentage change from baseline for Get-up-and-Go, Get-up, handgrip, peak torque for knee extension and flexion (60, 90 and 120°/sec) and peak torque for elbow extension and flexion (60°/sec).
as §2

[3] = tested on: Mouse C2C12 skeletal muscle cell myoblasts fused into myotubes; assay: Protein degradation and synthesis by leucine isotope release/disappearance in C2C12 myotubes with dexamethasone; format: cell-based; settings: 24 h, dexamethasone 100 nM
Method: Mouse C2C12 skeletal muscle cell myoblasts were grown in culture under standard conditions and fused into myotubes following the methods of Menconi et al. (95). Four separate studies were conducted during different weeks. The first 3 studies consisted of 4 replicate dishes per treatment and the fourth study consisted of 6 replicate dishes per treatment. The treatments were applied to the cells during the 24 h measurement period. Treatments applied were control, 25OH-VitD3 (200 ng/mL), HMB (200 μM HMB as Ca(HMB)2, and the combination of HMB and 25OH-VitD3. Dexamethasone (100 nM) was added to the culture medium during the treatment/measurement period to stimulate protein degradation. Calcium in the form of calcium chloride was added to the control and 25OH-VitD3 treatments so that all the treatments were balanced for calcium. For measurement of protein degradation during the treatment period, leucine free medium was obtained to which [5,5,5]^2H3-leucine was added so that the isotopes of leucine (natural leucine and [1-^13C]-leucine) could be measured as they were released into the medium through the protein degradation process. The measurement medium was sampled at 2 and 24 h and samples stored at −80° C. until analyzed. The samples were analyzed for leucine using a gas chromatography (model 6890, Hewlett Packard, Palo, Calif.) mass spectrometry (model 5973, Hewlett Packard, Palo, Calif.) and the gas chromatography column used for the analysis was a Zebron ZB-5. (Phenomenex, Torrence, Calif.). Natural leucine, [1-^13C]-leucine, and [5,5,5^2H3]-leucine were monitored at 302, 303, and 305 AMU, respectively. Corrections for sampling at 2 h and for leucine utilization from the measurement media were made. […] Concentrations of proteins were analyzed following the microplate assay instructions using a Pierce BCA protein assay kit (Thermo Scientific, Rockford, Ill.). DNA was measured flourometrically using the Quant-iT™ dsDNA assay kit from Invitrogen (Carlsbad, Calif.). […]

[4] = biological target: T1, 1-alpha, 25-Vitamin D hydroxylase (Homo sapiens, UniProt O15528); settings: human vascular smooth muscle; cited from earlier work
T1 sequence (O15528 1-508): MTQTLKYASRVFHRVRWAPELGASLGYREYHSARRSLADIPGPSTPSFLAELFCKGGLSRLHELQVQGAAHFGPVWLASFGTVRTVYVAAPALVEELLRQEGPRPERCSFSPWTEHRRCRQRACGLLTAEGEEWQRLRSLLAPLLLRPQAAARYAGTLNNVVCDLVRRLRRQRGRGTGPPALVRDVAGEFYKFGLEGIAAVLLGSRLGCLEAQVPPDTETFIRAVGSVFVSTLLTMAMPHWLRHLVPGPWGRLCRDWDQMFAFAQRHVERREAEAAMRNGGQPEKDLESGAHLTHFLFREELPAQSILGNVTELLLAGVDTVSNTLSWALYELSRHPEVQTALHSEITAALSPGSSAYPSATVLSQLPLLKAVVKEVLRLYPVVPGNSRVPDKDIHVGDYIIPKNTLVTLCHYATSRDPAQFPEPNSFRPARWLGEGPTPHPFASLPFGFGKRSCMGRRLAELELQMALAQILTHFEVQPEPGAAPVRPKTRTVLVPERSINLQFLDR

[5] = 12-week 2x2 HMB / Vitamin D study in older adults with exercise training, serum 25OH-VitD3; format: in vivo, human; settings: control or HMB alone, no Vitamin D supplement
From the text: Elderly women (n=30) and men (n=16) were recruited into a double-blinded controlled study. The older adults were recruited from two locations in South Dakota: Brookings and Sioux Falls. The subjects underwent an initial screening and were randomized to treatments. Testing consisted of an initial (0 weeks) and follow-up testing at 4, 8 and 12 weeks over the course of the 12-week study.
as §1
The treatments were supplied in capsules of equal size and color and contained equal amounts of calcium and phosphorus. The subjects were instructed to take three capsules two times a day. Each subject was supplied with a one-week supply of the supplement, allocated by subject number and returned each week for an additional 1-week supply. […]
as §2

[6] = after HMB is fed; cited from earlier work
[7] = 12-week HMB / Vitamin D study, urinary HMB concentration (supplement compliance); format: in vivo, human; settings: clean catch urine sample, HMB 3.0 g/day
Method: The average 25OH-VitD3 concentration at wk 0 was 26.5 ng/ml. […] However, subjects either supplemented with a control or HMB alone decreased their serum 25OH-VitD3 level by 2.0 ng/mL. A clean catch urine sample was used to test for supplement compliance.

Compound	knee extension strength compared to control-treated subjects [1]	increase in the performance index over the control [2]	dexamethasone stimulated protein degradation [3]	Km [4]	decrease in serum 25OH-VitD3 level [5]	decrease in protein degradation measured by [1-13C]-leucine ([3]; HMB 200 μM)	decrease in protein degradation measured by natural leucine ([3]; HMB 200 μM)	loss of HMB to urine [6]	increase in urinary HMB concentration [7]
C=C1CC[C@H](O)C/C1=C/C=C1\CCC[C@]2(C)[C@@H]([C@H](C)CCCC(C)C)CC[C@@H]12 [Vitamin D, cholecalciferol]	Neither the HMB alone nor the Vitamin D-treated subjects increased knee extension strength	58%	tended to decrease dexamethasone stimulated protein degradation in only the faster turnover protein pool						
C=C1CC[C@H](O)C/C1=C/C=C1\CCC[C@]2(C)[C@@H]([C@H](C)CCCC(C)(C)O)CC[C@@H]12 [25OH-VitD3]				25 ng/mL					
β-hydroxy-β-methylbutyrate [HMB]	Neither the HMB alone nor the Vitamin D-treated subjects increased knee extension strength	35%			2.0 ng/mL	6.3%	7.6%	20-50%	50 fold
